Laboratory results from US11351134B2, “Small molecule agents, compositions, and formulations, for internal use, displaying inhibitory activity against gram-positive and/or gram-negative organisms” (NATUREZA, INC., priority 2017, dated 2022).
Read-outs that look alike come from different tables or passages of the source.

Assays:
S. epidermidis = assay: Broth microdilution MIC of lecithin/chitosan particle compositions; type: cell-based; conditions: Staphylococcus epidermidis, lecithin/chitosan particle composition, prep. mixture pH 5 or pH 7, maximum concentration tested 10 mg/ml
Procedure: (§1) Initially, to determine basic characteristics, each active component was separately mixed, generally under agitated conditions, with water, and each was miscible with water. Each, after being mixed with water, was tested in a broth microdilution assay, against a variety of bacteria using amounts of the each of the lauric acid derivatives, ranging from about 0.0009 wt. % to about 8 wt. %. The bacteria included Escherichia coli, and Staphylococcus aureus (including MRSA strains). The minimum inhibitory concentration (MIC) needed to prevent growth of the target bacteria was evaluated based on a method published by Clinical Laboratory Standards Institute (CLSI), broth microdilution method M-07 (M07). […] Each of the samples containing one of the lauric acid derivatives was compared with a positive control, decanoic acid.
(§2) For TABLES 1 to 3, compositions were generally prepared as described above, and as further outlined in this paragraph. For these examples, the active component, as a lauric acid derivative or lauric acid, was suspended in an organic solvent, chloroform, and then mixed with water, under robust agitation. The amount of water to the amount of chloroform was at least about 2:1, and could be as high as 10:1. Chloroform was then evaporated (e.g., under vacuum using a freeze dryer). After removal of the chloroform, a 2.2% lecithin solution in an acetate buffer (e.g., 98 mM acetic acid and 2 mM sodium acetate) was prepared and added, so the final amount of the active component was about 1 part active component mixture and about 9 parts of the 2.2% lecithin solution. Of course, it is noted that other ranges to achieve final amount of the active component as described above (e.g., active component mixture and lecithin solution) may also be utilized. Cholesterol could also be optionally added. The mixture of lecithin and the active component was mixed and sonicated, and then a solution of about 1.5% chitosan was added. Thereafter, the entirety of the mixture containing the lecithin and the active component was further blended, in which a final ratio was about 1 part active component to about 9 parts of the 2.2% lecithin solution to about 10 parts of the 1.5% chitosan solution. The pH was then varied, to a pH of 5, or a pH of 7, or a pH of 9. In some mixtures having a pH of 7, a chemical agent imparting a positive charge to the chitosan was included in a form of glycol chitosan. In these tests, the chemical agent used was glycol. In these examples, the amount of chemical agent, glycol was about one molecule glycol moiety to one molecule chitosan sacharide unit; higher amounts of glycol moieties are also acceptable, while lower amounts of glycol moieties were often found to decrease overall inhibitory activity associated with a composition when formed and tested in vitro. It is noted that negatively charged chitosan containing particles were prepared. […] After mixing, the mixtures could each be filtered through a […] filter. In some tests, the mixtures were sonicated before filtering. Sonication produced small particles. In some studies, particles were freeze dried as a powder (generally, after mixing, sonicating and filtering).
(§3) The positive controls were prepared and evaluated in a similar manner. All prepared samples were tested using a broth microdilution test.

E. coli = assay: as above; type: cell-based; conditions: maximum concentration tested 10 mg/ml; for MIC: Escherichia coli; for MIC (mg/ml) for E. coli (chitosan prep. mixture was at pH 5 or at pH 7): prep. mixture pH 5 or pH 7
Procedure: as §1, §2, §3

[1] = tested on: Staphylococcus aureus (including MRSA strains); assay: Broth microdilution (CLSI M07) of active component mixed with water only; type: cell-based; conditions: active component mixed with water only (miscible state); about 0.0009 wt. % to about 8 wt. %
Procedure: as §1

Escherichia coli = assay: as above; type: cell-based; conditions: active component mixed with water only (miscible state); about 0.0009 wt. % to about 8 wt. %
Procedure: as §1

[2] = tested on: Gram-positive pathogens and Gram-negative pathogens; assay: In vitro inhibitory activity of chitosan- or carrier-containing particles; type: cell-based; conditions: synthesis (with chitosan) at pH 7 with positively charged chitosan
Description: as §2, §3
This also occurs when the chitosan- or carrier-containing particle includes an active component that has a log P value that is less than 4 and includes a methyl and/or ethyl side chain (e.g., 12-amino-1-dodecanoic acid methyl ester). […]

[3] = tested on: representative Gram-positive pathogens and yeast; assay: Broth microdilution of lecithin/chitosan compositions, sonicated and/or filtered; type: cell-based; conditions: composition with lecithin and chitosan
Description: In a further preparation, lauric acid derivative, 12-aminododecanoic acid or 12-amino-1-dodecanoic acid methyl ester, was suspended individually (and independently) in an organic solvent, chloroform, and mixed with water, generally under agitated conditions. Here, for each sample, the amount of water to the amount of chloroform was at least 2:1, and was as high as 10:1. This was followed by chloroform evaporation, generally under vacuum using a freeze dryer. After removal of the chloroform, a lecithin solution was added to each sample. The lecithin was in a solution of acetic acid (e.g., 98 mM acetic acid and 2 mM sodium acetate), in which the amount of lecithin in solution was between about 1% to 5%. With addition of lecithin, each sample mixture contained up to about 4.8% lecithin (or generally about 5% or less), and up to about 7.8% of one of the lauric acid derivatives (or generally about 8% or less). pH of the solution was neutral. It is noted that the lecithin should be in a suitable form (e.g., solution or granules) acceptable for internal utilization (e.g., pharmaceutical grade). The lecithin may also include cholesterol, or other lecithin variants as described above, with similar results. Chitosan was then added to each of the samples, and each sample was then independently sonicated, followed by independent sterilization by high pressure filtration. […]

[4] = tested on: representative bacteria tested in vitro, whether Gram-positive or Gram-negative; assay: In vitro growth inhibition of active component suspended in chloroform, mixed with water, chloroform evaporated; type: cell-based; conditions: pH neutral or acidic, no lecithin or chitosan
Procedure: In another preparation, each of the lauric acid derivatives of TABLE 4 was independently suspended in an organic solvent, chloroform, and then mixed with water, generally under agitated conditions. This was followed by chloroform evaporation, generally under vacuum, using a freeze dryer. The same preparations were evaluated against the positive control, decanoic acid. Here, for all samples, the amount of water to the amount of chloroform was at least 2:1, and was as high as 10:1. The pH was neutral or was acidic. For each of the lauric acid derivatives as so prepared independently, there was no evidence of any growth inhibitory activity (growth inhibition) against representative bacteria tested in vitro, whether Gram-positive or Gram-negative.

Miscibility with water = type: physicochemical; conditions: mixed with water under agitated conditions
Procedure: as §1

[5] = read-out: MIC (mg/ml) for S. epidermidis (chitosan prep. mixture was at pH 5 or at pH 7)
[6] = lecithin/chitosan particle composition

Compound	MIC (S. epidermidis; [5]) [mg/mL]	MIC (E. coli; lecithin/chitosan particle composition, prep. mixture pH 9, read-out: MIC (mg/ml) for E. coli (chitosan prep. mixture was at pH 9)) [mg/mL]	MIC (E. coli; lecithin/glycol chitosan particle composition, prep. mixture pH 7, read-out: MIC (mg/ml) for E. coli (chitosan prep. mixture was at pH 7 with glycol chitosan)) [mg/mL]	MIC (mg/ml) for E. coli (chitosan prep. mixture was at pH 5 or at pH 7) (E. coli; [6])	Inhibitory activity against Gram-positive bacteria (e.g., S. aureus) [1]	Inhibitory activity against Gram-negative bacteria (e.g., E. coli) (Escherichia coli)	Inhibitory activity against both Gram-positive pathogens and Gram-negative pathogens [2]	Growth inhibitory activity against representative Gram-positive pathogens and yeast [3]	Growth inhibitory activity against representative bacteria [4]	MIC (S. epidermidis; Table 3, read-out: MIC (mg/ml) S. epidermidis (chitosan prep. mixture at pH 5 or at pH 7)) [mg/mL]	Miscibility with water (Miscibility with water)
NCCCCCCCCCCCC(=O)O [12-aminododecanoic acid]	10	10	10	— (no inhibitory activity)	does not, in the miscible state, demonstrate inhibitory activity	does not, in the miscible state, demonstrate inhibitory activity	stronger inhibitory activity as well as broad spectrum activity	exhibited growth inhibitory activity	–	–	–
CCCCCCCCCC(=O)O [decanoic acid, reference compound]	10	–	–	— (no inhibitory activity)	–	–	–	–	did not demonstrate growth inhibitory activity	10	not miscible in water
